Target: Ubiquitin carboxyl-terminal hydrolase 1/WD repeat-containing protein 48 (Homo sapiens, UniProt O94782)
Experiment: Not found

Sequence of Ubiquitin carboxyl-terminal hydrolase 1/WD repeat-containing protein 48 (O94782 whole entry): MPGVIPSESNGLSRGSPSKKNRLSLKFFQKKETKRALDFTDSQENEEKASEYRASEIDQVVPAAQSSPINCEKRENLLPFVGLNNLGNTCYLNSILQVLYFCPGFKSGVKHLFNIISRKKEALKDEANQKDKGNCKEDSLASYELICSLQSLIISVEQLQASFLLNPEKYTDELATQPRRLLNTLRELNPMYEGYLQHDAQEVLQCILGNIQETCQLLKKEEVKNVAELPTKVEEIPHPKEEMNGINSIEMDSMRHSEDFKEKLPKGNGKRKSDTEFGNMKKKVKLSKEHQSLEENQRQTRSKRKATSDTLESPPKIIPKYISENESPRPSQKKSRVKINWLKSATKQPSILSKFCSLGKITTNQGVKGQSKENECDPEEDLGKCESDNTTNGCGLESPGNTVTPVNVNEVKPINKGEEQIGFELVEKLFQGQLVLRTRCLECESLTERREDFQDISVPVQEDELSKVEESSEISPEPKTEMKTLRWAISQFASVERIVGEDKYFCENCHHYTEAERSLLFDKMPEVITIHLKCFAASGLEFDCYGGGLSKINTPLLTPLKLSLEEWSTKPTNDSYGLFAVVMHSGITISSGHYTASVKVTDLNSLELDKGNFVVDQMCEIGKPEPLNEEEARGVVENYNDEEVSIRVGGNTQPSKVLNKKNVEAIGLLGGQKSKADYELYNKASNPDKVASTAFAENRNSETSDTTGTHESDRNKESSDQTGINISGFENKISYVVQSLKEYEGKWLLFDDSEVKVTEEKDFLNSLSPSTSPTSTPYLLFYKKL
Sequence of Ubiquitin carboxyl-terminal hydrolase 1/WD repeat-containing protein 48 (Q8TAF3 whole entry, further chain): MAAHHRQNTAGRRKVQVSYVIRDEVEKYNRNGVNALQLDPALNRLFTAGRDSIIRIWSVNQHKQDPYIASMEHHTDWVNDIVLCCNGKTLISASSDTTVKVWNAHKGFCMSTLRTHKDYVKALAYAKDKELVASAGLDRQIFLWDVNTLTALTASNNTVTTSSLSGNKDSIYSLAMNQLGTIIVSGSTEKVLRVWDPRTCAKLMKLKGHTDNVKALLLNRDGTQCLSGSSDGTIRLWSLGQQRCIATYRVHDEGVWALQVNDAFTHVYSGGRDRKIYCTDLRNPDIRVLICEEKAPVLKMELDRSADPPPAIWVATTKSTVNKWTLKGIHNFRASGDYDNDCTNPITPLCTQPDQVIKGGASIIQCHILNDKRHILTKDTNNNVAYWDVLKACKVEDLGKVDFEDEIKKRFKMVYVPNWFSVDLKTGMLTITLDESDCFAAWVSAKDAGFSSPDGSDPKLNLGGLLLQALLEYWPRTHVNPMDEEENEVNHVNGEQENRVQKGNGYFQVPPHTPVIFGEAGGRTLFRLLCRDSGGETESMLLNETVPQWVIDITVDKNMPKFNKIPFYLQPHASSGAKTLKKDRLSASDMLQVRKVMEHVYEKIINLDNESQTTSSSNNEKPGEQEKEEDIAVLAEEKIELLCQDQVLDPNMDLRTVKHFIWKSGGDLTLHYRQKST

IC50: 77.5 nM
SMILES: COc1ncnc(OC)c1-c1nc2c(Cc3ccc(-c4nc(C(F)(F)F)cn4C)cc3)cccn2n1 [US20240409538, Example 27]

— BindingDB's records for patent US20240409538 (Impact Therapeutics (Shanghai), 2024)
